Measurements as given in patent US12433863B2, “Pharmaceutical compositions and uses directed to lysosomal storage disorders” (INTRABIO LIMITED, priority 2016, dated 2025).
Where “and” joins values, the source holds several entries; their conditions need not be identical. Equal entries are not always repeated.

How the values were obtained:
[1] = system: patients with cerebellar ataxia; conditions: cited from earlier work
[2] = system: Tay-Sachs disease patient fibroblasts; assay: Glycosphingolipid (GSL) levels by HPLC in Tay-Sachs disease patient fibroblasts; assay type: cell-based, human; conditions: 1 mM for 6 days, p<0.05
[3] = system: NPC patients; assay: Clinical severity score (CSS) and annual severity increment score (ASIS) in ten NPC patients; assay type: in vivo, human; conditions: 4.5 g/day
Description: An NPC patient's severity may be quantified by assigning a clinical severity score (CSS), which assesses various parameters of the disease and gives each parameter a score out of 5 (higher score =greater severity). See Yanjanin et al., “Linear Clinical Progression, Independent of Age of Onset, in Niemann-Pick Disease, Type C,” Am J Med Genet Part B 153B:132-140. In an untreated patient, one can typically predict how the CSS will change over time in an individual, as disease progression appears to be linear. For example, if Patient A moves from a CSS of 8 to a CSS of 12 between month 0 and month 12, it can be predicted that by month 36, the patient will have a CSS of 20. The annual severity increment score (ASIS) quantities the annual rate of change in the CSS, calculated by dividing the CSS of a patient by the patient's age. […] Each year, the patient would be expected to progress by 4 CSS points, such that at 4 years of age, the patient's CSS would be 16. If therapeutic intervention slowed or arrested disease progression, one would expect the patient to have a smaller ASIS score after such therapy than at baseline.
Ten NPC patients were administered acetyl-leucine at 4.5 g/day over long durations. A CSS was determined at baseline, and at various time points, for eye movement, ambulation, speech, swallow, fine motor skills, cognition, memory, and seizures. An overall CSS was calculated at baseline and at each such time point by adding the individual CSS values for each parameter (eye movement, ambulation, etc.).
The ASIS at baseline and each time point was calculated using each patient's CSS and age at the time of assessment. The overall ASIS for each patient at each time point is shown below in Table 15.

[4] = system: Npc1^−/− (BALB/cNctr-Npc1^m1N/J) mouse; assay: In vivo mouse study in Npc1-/- mouse model of NPC (coat, weight, CatWalk gait, open field motor function, lifespan)
Method: Separate groups of Npc1^-/- and Npc1^+/+ mice were left untreated, as controls. […] Animals were weighed twice a week. Weights were averaged (mean) across all mice in each group and compared. Gait analysis was performed on mice at eight weeks of age using a CatWalk® 15.0 system according to manufacturer's instructions (Noldus, Nottingham, UK). Five runs were recorded per animal. CatWalk® parameters measured were: • 1. Stand Mean: average duration (s) of paws in contact with glass plate; • 2. Step Cycle: duration (s) between two consecutive contacts of the same paw; • 3. Duty Cycle: percentage of time paws in contact with plate compared with time to complete a step cycle; • 4. Step Sequence (AB): percentage of time spent walking in LF-RH-RF-LH alternating pattern (LF: left front; RH: right hind; RF: right front; LH left hind); • 5. Cadence: step per seconds in a trial; • 6. Diagonal Support: percentage of time with simultaneous contact of diagonal paws with the glass plate (RF&LH or RH&LF). Motor Function Analysis Motor function analysis was performed on mice at eight and nine weeks of age using an Open Field Activity Monitor according to manufacturer's instructions (Linton Instruments, Amlogger Software). Each mouse was placed in a plastic cage with bedding and analysed for five minutes. Rears were counted manually. Motor function parameters measured were: • 1. Centre Rearing: mice rearing on hind legs unsupported; • 2. Rearing: mice rearing on hind legs with and without the support of cage walls; • 3. Activity: regular movement of the animal including walks; • 4. Front to Back (FR) count: movement of the animal from front to back of the cage; • 5. Active Time: duration (s/min) of activeness regardless of movement; • 6. Mobile Time: duration (s/min) of mobility; • 7. Rearing Time: duration of any rearing.

[5] = system: Hexb^−/− mouse (Sandhoff disease model); assay: Sandhoff disease mouse model (lifespan, bar crossing test, step cycle); assay type: in vivo
Method: This study made use of a mouse model of Sandhoff disease, the Hexb^−/− mouse, as described in Jeyakumar et al. (Jeyakumar, M. et al. (1999) Proc. Natl. Acad. Sci. USA 96: 6388-6393).
Wild-type (Hexb^+/+) mice were used as controls.
In FIG. 7A, acetyl-leucine-treated mice were treated with 0.1 g/kg acetyl-leucine from 3 weeks of age. The asterisks (*) indicates a p-value of <0.05 vs untreated Sandhoff mice. Data is average of n=6 mice per group. Without treatment, the median survival time of Sandhoff mice was 112 days. Treatment with acetyl-leucine (0.1 g/kg body weight since 3 weeks of age) increased the median lifespan to 120 days.
The bar crossing test is a method for assessing motor function in mice in which the mouse is placed hanging from the centre of a horizontal bar by its front limbs. A wild-type mouse with normal motor function will be able to engage its hind limbs and thereby move to one of the platforms at either end of the bar, and in doing so complete the test.
An untreated Sandhoff mouse is able to complete the test up until around 11 weeks of age. After this point motor function and hind-limb mobility/engagement have deteriorated to the point to which the mouse cannot complete the test, and will drop from the bar onto the padded surface below.
Step cycle is the length of time taken during locomotion by a limb from the time it leaves the ground until it leaves the ground on the next occasion.
Step cycle time was assessed at 12 weeks of age in untreated and acetyl-leucine treated Sandhoff model mice. Acetyl-leucine treatment constituted 0.1 g/kg body weight acetyl-leucine from 3 weeks of age.

[6] = one line per patient, days per Table 5, listed as acetyl-leucine
[7] = one line per patient, score out of 5, listed as acetyl-leucine

CC(=O)NC(CC(C)C)C(=O)O (racemic) [acetyl-DL-leucine]
Benefit in cerebellar ataxia, another case series ([1]; Pelz et al. 2015): did not find benefit
Temporal gait variability, quantitative gait analysis ([1]; Schniepp et al. 2015): improved temporal gait variability
Cerebellar ataxia symptoms, case series ([1]; Strupp et al. 2013): symptomatic improvement of cerebellar ataxia
GSL levels (GSL storage) [2]: decrease was statistically significant
CSS overall, Time Point 2 ([3]; one line per patient (Patient I.D 1-10), days per Table 5, listed as acetyl-leucine): 33 and 12 (3×) and 13 and 23 and 19 and 22 and 11 (2×)
CSS overall, Time Point 3 [3, 6]: 33 and 11 (2×) and 10 (2×) and 12 and 21 (2×) and 19
CSS overall, Time Point 4 [3, 6]: 33 and 12 and 21
CSS eye movement, Time Point 4 ([3]; one line per patient, score out of 5): 3
CSS ambulation, Time Point 2 [3, 7]: 5 and 1 (3×) and 2 (5×) and 4
CSS ambulation, Time Point 4 [3, 7]: 5 and 1 and 2
CSS cognition, Time Point 2 [3, 7]: 5 and 3 (5×) and 4 (3×) and 2
CSS cognition, Time Point 3 [3, 7]: 5 and 3 (5×) and 4 (3×)
CSS cognition, Time Point 4 [3, 7]: 5 and 3 and 4
CSS eye movement, Time Point 2 [3, 7]: 3 (9×) and 2
CSS eye movement, Time Point 3 [3, 7]: 3 (7×) and 2 (2×)
CSS fine motor skills, Time Point 2 [3, 7]: 5 and 1 (6×) and 4 (2×) and 2
CSS fine motor skills, Time Point 3 [3, 7]: 5 and 1 (5×) and 4 (2×) and 2
CSS fine motor skills, Time Point 4 [3, 7]: 5 and 1 and 4
CSS memory, Time Point 2 [3, 7]: 4 (3×) and 1 (5×) and 3 and 0
CSS memory, Time Point 3 [3, 7]: 4 (2×) and 0 (2×) and 1 (3×) and 3 (2×)
CSS memory, Time Point 4 [3, 7]: 4 and 1 and 3
CSS seizures, Time Point 2 [3, 7]: 5 and 0 (9×)
CSS seizures, Time Point 3 [3, 7]: 5 and 0 (8×)
CSS seizures, Time Point 4 [3, 7]: 5 and 0 (2×)
CSS speech, Time Point 2 [3, 7]: 2 (4×) and 1 (6×)
CSS speech, Time Point 3 [3, 7]: 2 (3×) and 1 (6×)
CSS speech, Time Point 4 [3, 7]: 2 (2×) and 1
CSS swallow, Time Point 2 [3, 7]: 4 and 2 (5×) and 3 (3×) and 0
CSS swallow, Time Point 3 [3, 7]: 4 and 2 (4×) and 3 (3×) and 0
CSS swallow, Time Point 4 [3, 7]: 4 and 2 and 3
Change in overall CSS over the course of the experiment ([3]; ten NPC patients): none of the ten patients showed an overall increase in CSS
Delay until display of disease symptoms versus untreated Npc1-/- mice ([4]; Npc1-/- mice treated from weaning): two
Delay of weight loss symptoms compared to the untreated group ([4]; Npc1-/- mice, 0.1 g/kg from weaning): two
Gait properties (CatWalk) compared to untreated littermates ([4]; Npc1-/- mice, 0.1 g/kg from weaning, eight weeks of age): significantly improved gait
Motor function properties (Open Field Activity Monitor) compared to untreated littermates ([4]; Npc1-/- mice, 0.1 g/kg from weaning, nine weeks of age): significantly improved motor function
Coat condition ([4]; Npc1-/- mice, 0.1 g/kg in chow from weaning, nine weeks of age): smooth and glossy coat
Lifespan ([4]; Npc1-/- mouse, 0.1 g/kg from 3 weeks of age): small but statistically significant increase in lifespan
Average step cycle time ([5]; Sandhoff mice, 12 weeks of age, 0.1 g/kg from 3 weeks, p<0.001 vs untreated): significantly faster average step cycle times
Hind step cycle time ([5]; Sandhoff mice, 12 weeks of age, 0.1 g/kg from 3 weeks, p<0.01 vs untreated): significantly faster hind step cycle times
Front step cycle time ([5]; Sandhoff mice, 12 weeks of age, 0.1 g/kg from 3 weeks, p<0.05 vs untreated): significantly faster front step cycle times
Motor function assessed via the bar-crossing test ([5]; Sandhoff mouse model, 0.1 g/kg body weight from 3 weeks of age): improved motor function and hind-limb mobility/engagement
Lifespan versus untreated Sandhoff mice ([5]; Sandhoff mouse, 0.1 g/kg from 3 weeks of age, p<0.05): statistically significant increase in the lifespan
